Test results: patent publication US20230190725A1, “MEK INHIBITORS FOR CORNEAL SCARRING AND NEOVASCULARIZATION” (THE BOARD OF TRUSTEES OF THE UNIVERSITY OF ILLINOIS, priority 2019, published 2023)
Like-named read-outs stand apart in the source and are kept apart here.

Legend:
PAX6 [1] = experiment: PAX6 mRNA (RT-PCR) and protein (SDS-PAGE vs GAPDH) expression in human corneal epithelial cells; assay type: cell-based; conditions: for PAX6 protein expression: human cornea epithelium cells, 48 hours of treatment
Experimental: For example, PD0325901 (PD) was tested in human corneal epithelial cells (HCEC).
HCEC were treated with a PD composition comprising 1 μM PD dissolved in culture media for up to 120 hours. PAX6 protein levels were detected by SDS-PAGE and quantified by comparing the levels of GAPDH protein (FIG. 1A). In the same treated corneal epithelial cells, PAX6 mRNA expression was measured by RT-PCR using three different primers. (FIG. 1B).
In summary, the MEK inhibition increased PAX6 mRNA and protein expressions in human corneal epithelial cells (2.7±0.2 & 3.0±0.3 folds).

Aniridia mouse model = experiment: P90 electroretinography (ERG) in Aniridia mouse model; assay type: in vivo
Experimental: Retina function was assessed in the Aniridia mouse model using P90 electroretinography (ERG). Aniridia mice were treated with the PD composition described in Example 1 or vehicle.

[2] = tested on: epithelial and limbal stem cell injury model; experiment: Corneal injury model with limbal stem cell deficiency; assay type: in vivo, mouse; conditions: up to 1 month after injury
Experimental: The formulation was tested in an epithelial and limbal stem cell injury model, in which we injured the epithelium of the cornea up to the limbal area, creating a severe scar forming wound with limbal stem cell deficiency.
The PD composition provided in Example 1 was tested in an injury model, in which we injured the epithelium of the cornea up to the limbal area, creating a severe scar forming wound with limbal stem cell deficiency. Using an alger brush, the corneal epithelium was scraped under general anesthesia from limbus to limbus to create a limbal stem cell deficiency model. Following this injury, corneal limbal stem cell deficiency happens, similar to human disease, and the cornea becomes scarred, opacified and vascularized by time.

mouse model of Aniridia = assay type: in vivo; conditions: for Corneal stromal thickness: P30, OCT, central cornea, WT 50.5±1.1 μm; for PAX6 protein expression in corneas: P30 PAX6 staining, compared to control; for corneal whole mount CK12 staining intensity: P90, Normal CK12 intensity: 100%; for Corneal scarring (ratio of scar area to total corneal area): slit lamp images
Experimental: Aniridia is a human condition with PAX6 mutation that develops corneal scarring and neovascularization. The MEK pathway is known to inhibit the PAX6 pathway, therefore it was investigated whether MEK inhibitors can indirectly stimulate PAX6 production. MEK inhibitors were tested in vivo, in a mouse model of Aniridia which allowed for investigation corneal opacification, scarring and neovascularization. Oral and topical formulations were optimized using an exemplary MEK inhibitor, such as PD0325901 (PD).
Aniridia mice were treated with or topical PD composition or vehicle, from postnatal day P5 to P30. Wild type (WT) littermates were used as normal reference. OCT and slit lamp images were used to compare the corneal epithelial/stromal thickness, clarity and scarring. H&E and immunostaining with PAX6 and Cytokeratin (CK)12 were used to compare the morphology, protein expression and differentiation. P30 PAX6 staining confirmed increase in PAX6 protein expression in corneas with both oral (2.3±0.2 folds) and topical (2.5±0.1 folds) methods (P<0.001) (oral data not shown, topical data FIG. 3A).
FIG. 2 provides the data from the topical administration of PD compositions. […] The area of scarring was measured manually based on the corneal opacification in the scar area on the slit lamp images using ImageJ (NIH). The ratio of the scar area to total corneal area was reported as a percentage. […] These measurements show the promotion of a more normal differentiation of the corneal epithelium and stroma (FIG. 2). Corneal epithelial and stromal thicknesses were measured at the central cornea and outside the scar area via OCT imaging.
Hematoxylin and eosin (H&E) staining was carried out on Aniridia cornea tissue. […] FIG. 2 provides representative H&E staining of frozen sections from day 30).
Immunohistochemical staining of the mice eyes for DAPI, PAX6 and CK12 (a marker for normal corneal epithelium) was also carried out.

ERK1 and ERK2 = experiment: Western blot of ERK1/ERK2 in human corneal epithelial cells; assay type: cell-based
From the text: Western blot analysis of human corneal epithelial cells confirmed that this MEK inhibitor effectively and specifically suppresses ERK1 and ERK2, while having minimal effect on p38 as the control (FIG. 10).

PAX6 [3] = experiment: PAX6 mRNA measurement in murine PAX6 heterozygote corneal MSCs; assay type: cell-based; conditions: n=3
From the text: Significance determined by t test. *P<0.05. Ctrl: control. RX: treatment.

[4] = human corneal epithelial cells, n=3, FIG. 1

O=C(NOC[C@H](O)CO)c1ccc(F)c(F)c1Nc1ccc(I)cc1F [PD0325901, Mirdametinib]
PAX6 mRNA measurement (PAX6 [1]; [4]): increase in PAX6 expression | PAX6 protein measurement (PAX6 [1]; [4]): increase in PAX6 expression | ocular/retinal function (Aniridia mouse model; P90 electroretinography, compared to the control group): significantly better ocular/retinal function | Photopic β wave (Aniridia mouse model; topical, P90 ERG): 102.1 ± 50.9 | Scotopic α wave (Aniridia mouse model; topical, P90 ERG): −214.5 ± 64.1 | Scotopic β wave (Aniridia mouse model; topical, P90 ERG): 244.8 ± 120.1 | corneal neovascularization [2]: significantly less | corneal opacity / haziness [2]: significantly less | corneal neovascularization ([2]; listed as PD): significantly reduced | corneal opacity / haziness ([2]; listed as PD): significantly reduced | H&E histological pattern of cornea (mouse model of Aniridia; frozen sections, day 30): more similar histological pattern to normal | toxicity of optimized formulation and dosage (mouse model of Aniridia; mouse, in vivo, po): no toxicity | Corneal stromal thickness (mouse model of Aniridia; oral): 24.7±4.1 μm | PAX6 protein expression in corneas (mouse model of Aniridia; oral): 2.3±0.2 folds | corneal whole mount CK12 staining intensity (mouse model of Aniridia; oral): 64±3% | Corneal scarring (ratio of scar area to total corneal area) (mouse model of Aniridia; oral): 2.1±0.4% | Corneal stromal thickness (mouse model of Aniridia; topical): 25.5±4.7 μm | PAX6 protein expression in corneas (mouse model of Aniridia; topical): 2.5±0.1 folds | corneal whole mount CK12 staining intensity (mouse model of Aniridia; topical): 69±32% | Corneal scarring (ratio of scar area to total corneal area) (mouse model of Aniridia; topical): 2.3±0.6% | ERK1/ERK2 inhibition (ERK1 and ERK2): specific ERK1/ERK2 inhibition | PAX6 mRNA measurement (PAX6 [3]): increase in PAX6 expression

COc1cc(F)c(F)c(Nc2ccc(I)cc2F)c1NS(=O)(=O)C1(C[C@H](O)CO)CC1 [Refametinib, refametinib]
PAX6 protein expression (PAX6 [1]): induced PAX6 protein expression | PAX6 protein measurement (PAX6 [1]; [4]): can induce PAX6 expression

O=C(c1ccc(F)c(F)c1Nc1ccc(I)cc1F)N1CC(O)([C@@H]2CCCCN2)C1 [Cobimetinib]
PAX6 protein expression (PAX6 [1]): induced PAX6 protein expression | PAX6 protein measurement (PAX6 [1]; [4]): can induce PAX6 expression
